Our source for the TGI and GI50 values is PubChem BioAssay (NCI).

Among the test systems are SNB-19 CNS; MALME-3M melanoma; U251 CNS; UACC-257 melanoma; SF-539 CNS; UO-31 renal; ACHN renal; HOP-92 NSCLC; HCT-15 colon; COLO 205 colon; HOP-62 NSCLC; SK-MEL-5 melanoma; SK-OV-3 ovarian.
Assay in all cases: DTP human tumour cell line panel, 48 h

Values joined by “and” are separate entries in the source; they are usually repeats but may differ in a detail not shown here. Equal values may be shown once.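 How tested: cells in 96-well plates exposed to compound for 48 hours at five concentrations. The concentration for 50% growth inhibition is given as GI50. TGI: total growth inhibition.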 Where only a bound is given, the exact number is not on record here.

The TGI is the concentration giving total growth inhibition. As usually defined, the GI50 is the concentration at which growth is held to half of that of the control.

On to `CC(=O)OCC1OC(N2C(C)=C(C(C)=O)C(c3ccc(Cl)cc3)C(C#N)=C2S)C(OC(C)=O)C(OC(C)=O)C1OC(C)=O` (stereo unspecified), for which the TGI in the assay with SNB-19 CNS was over 100 µM; in the assay on MALME-3M melanoma, over 100 µM; in the assay with U251 CNS, over 100 µM; with UACC-257 melanoma it was over 100 µM; in the assay on SF-539 CNS, over 100 µM; with UO-31 renal, 88.8 µM. For the same molecule, the TGI is over 100 µM with ACHN renal; over 100 µM in the assay on HOP-92 NSCLC; over 100 µM with HCT-15 colon; 35.6 µM in the assay on COLO 205 colon; over 100 µM with HOP-62 NSCLC; over 100 µM with SK-MEL-5 melanoma.

`C#CCn1c(=O)c(I)cn(/C(=C/C(=O)OCC)C(=O)OCC)c1=O`: the concentration for total growth inhibition (TGI) in the assay with SNB-19 CNS was 34.5 µM; with MALME-3M melanoma, 4.27 µM; with U251 CNS, 32.1 µM; in the assay with UACC-257 melanoma it was 8.11 µM; with SK-OV-3 ovarian, 31.8 µM; in the assay with SF-539 CNS, 12.3 µM. Besides, the TGI with UO-31 renal stood at 2.86 µM; in the assay with ACHN renal, 3.27 µM; in the assay on HOP-92 NSCLC, 3.37 µM; in the assay on HCT-15 colon, 8.03 µM; in the assay on COLO 205 colon it was 2.94 µM; in the assay with HOP-62 NSCLC, 32.9 µM.

On to `N[C@@H]1CCN(c2c(F)cc3c(=O)c(C(=O)O)cn4c3c2Oc2c-4ccc3c2ccc2ccccc23)C1`, for which the TGI is 10.4 µM with SNB-19 CNS; 10.5 µM in the assay on U251 CNS; over 100 µM with UACC-257 melanoma; over 100 µM with SK-OV-3 ovarian; over 100 µM with SF-539 CNS; over 100 µM with UO-31 renal. In addition, the TGI in the assay on ACHN renal was 4.25 µM; in the assay with HOP-92 NSCLC it was 61.7 µM; in the assay with HCT-15 colon, over 100 µM; in the assay on COLO 205 colon, over 100 µM; in the assay with HOP-62 NSCLC, over 100 µM; with SK-MEL-5 melanoma it was over 100 µM.

Consider `Cc1ccc(C2(O)CSC(=NC34CC5CC(CC(C5)C3)C4)N2C(P(=O)(O)O)P(=O)(O)O)cc1` (stereo unspecified), for which the TGI in the assay on SNB-19 CNS, in the assay with MALME-3M melanoma, with U251 CNS, with SK-OV-3 ovarian, in the assay on SF-539 CNS and in the assay with UO-31 renal was over 100 µM in each case. For the same molecule, the TGI in the assay with ACHN renal, with HOP-92 NSCLC, in the assay on HCT-15 colon, with COLO 205 colon and in the assay with HOP-62 NSCLC was over 100 µM throughout.

In the case of `COc1ccc(/C=C2\N=C(N3CCCCC3)NC2=O)cc1`, the TGI with SNB-19 CNS, in the assay on MALME-3M melanoma, with U251 CNS, in the assay with UACC-257 melanoma, in the assay with SK-OV-3 ovarian and in the assay with SF-539 CNS was over 100 µM each time. The TGI in the assay with UO-31 renal, in the assay on ACHN renal, in the assay with HOP-92 NSCLC, with HCT-15 colon, in the assay on COLO 205 colon and in the assay with HOP-62 NSCLC was over 100 µM in each case.

Take `Cc1ccc(C(=O)O)c(/C=C2\Cc3ccc(C)cc3C2=O)c1`: the TGI in the assay with SNB-19 CNS was over 100 µM; with MALME-3M melanoma, over 100 µM; with U251 CNS, over 100 µM; in the assay on UACC-257 melanoma it was over 100 µM; in the assay with SF-539 CNS, 49.3 µM; in the assay on UO-31 renal, over 100 µM. Also, the TGI in the assay with ACHN renal, with HOP-92 NSCLC, with HCT-15 colon, in the assay on COLO 205 colon, in the assay with HOP-62 NSCLC and with SK-MEL-5 melanoma was over 100 µM each time.

In the case of `O=C(/C=C/c1ccc(O)c(O)c1)OCC(OC(=O)/C=C/c1ccc(O)c(O)c1)C(=O)O` (stereo unspecified), the TGI in the assay with SNB-19 CNS, in the assay on U251 CNS, with UACC-257 melanoma, in the assay on SK-OV-3 ovarian, with SF-539 CNS and in the assay with UO-31 renal was over 100 µM in each case. Further, the TGI in the assay with ACHN renal, in the assay on HOP-92 NSCLC, with HCT-15 colon, in the assay with COLO 205 colon, with HOP-62 NSCLC and in the assay with SK-MEL-5 melanoma was over 100 µM throughout.

Turning to `O=C(NC1=C(Cl)C(=O)c2ccccc2C1=O)c1ccccc1`, the TGI was over 100 µM in the assay on SNB-19 CNS; 31.3 µM with MALME-3M melanoma; 81.1 µM in the assay with U251 CNS; over 100 µM with SF-539 CNS; 40 µM with ACHN renal; 39.9 µM in the assay with HOP-92 NSCLC. The TGI in the assay with HCT-15 colon was 62.6 µM; with COLO 205 colon, 30 µM; with HOP-62 NSCLC, over 100 µM; in the assay with SK-MEL-5 melanoma, 78.9 µM.

As to `CNC1(c2cc3ccccc3s2)CCCCC1`, the TGI with SNB-19 CNS is over 100 µM; in the assay on U251 CNS, 33.8 µM; in the assay with UACC-257 melanoma, 35.1 µM; with SK-OV-3 ovarian, over 100 µM; with SF-539 CNS, 46.3 µM; in the assay on UO-31 renal, over 100 µM. Besides, the TGI was over 100 µM in the assay on ACHN renal; 61.6 µM with HOP-92 NSCLC; over 100 µM with HCT-15 colon; 41.9 µM with COLO 205 colon; over 100 µM in the assay on HOP-62 NSCLC; 36 µM with SK-MEL-5 melanoma.

Consider `CCOC(=O)CCC(NC(=O)c1ccc(Nc2nc3ccc(C(F)(F)F)cc3nc2-c2ccccc2)cc1)C(=O)OCC` (stereo unspecified), for which the TGI is over 100 µM with SNB-19 CNS; 76.8 µM in the assay with MALME-3M melanoma; over 100 µM in the assay on U251 CNS; 35.3 µM in the assay on UACC-257 melanoma; over 100 µM in the assay with SF-539 CNS; over 87.2 µM in the assay on UO-31 renal. Further, the TGI was over 100 µM in the assay with ACHN renal; over 100 µM in the assay with HOP-92 NSCLC; over 100 µM in the assay on HCT-15 colon; 29.7 µM in the assay with COLO 205 colon; over 100 µM with HOP-62 NSCLC; over 100 µM in the assay on SK-MEL-5 melanoma.

`CCOC(=O)Nc1cc2c(c(N)n1)N=C(c1ccc(OC)cc1)CN2`: the TGI in the assay on SNB-19 CNS amounted to 0.659 µM; in the assay on U251 CNS it was 2.47 µM; in the assay on UACC-257 melanoma it was 36.5 µM; in the assay with SK-OV-3 ovarian it was 18.7 µM; with ACHN renal, 35.7 µM; in the assay on HOP-92 NSCLC it was 48.2 µM. Moreover, the TGI was over 100 µM in the assay on HCT-15 colon; 0.196 µM and 0.146 µM with COLO 205 colon; 1.49 µM in the assay on HOP-62 NSCLC; 0.141 µM in the assay on SK-MEL-5 melanoma. Also, the GI50 with UACC-257 melanoma was 12.9 µM; in the assay on SK-OV-3 ovarian, 0.0475 µM; in the assay with SF-539 CNS, under 0.0001 µM.

In the case of `CC1C2CC(C(S(=O)(=O)O)C2=O)C1(C)C` (stereo unspecified), the TGI with SNB-19 CNS, with MALME-3M melanoma, with U251 CNS, in the assay on UACC-257 melanoma, in the assay with SK-OV-3 ovarian and in the assay on SF-539 CNS was over 100 µM in each case. Moreover, the TGI in the assay on UO-31 renal, in the assay with ACHN renal, in the assay with HOP-92 NSCLC, with COLO 205 colon and in the assay with HOP-62 NSCLC was over 100 µM in each case.

As to `Cc1cc(C)c2c(=O)cc(-c3cccc4ccccc34)[nH]c2n1`, the TGI in the assay with SNB-19 CNS is over 51.8 µM; in the assay with MALME-3M melanoma, 3.29 µM; with U251 CNS, 23.8 µM; with SK-OV-3 ovarian it was over 42 µM; in the assay with SF-539 CNS, over 19.9 µM; with UO-31 renal it was over 100 µM. Besides, the TGI with ACHN renal was over 100 µM; in the assay with HOP-92 NSCLC, over 77.1 µM; with HCT-15 colon, 14.3 µM; with COLO 205 colon, 2.03 µM; in the assay on HOP-62 NSCLC, over 100 µM; in the assay on SK-MEL-5 melanoma it was 1.74 µM.

Take `S=C(N/N=C/c1ccccn1)N1CCCCC1`: the TGI with SNB-19 CNS is over 100 µM; in the assay with MALME-3M melanoma, 7.57 µM; in the assay with U251 CNS, over 43.1 µM; in the assay on UACC-257 melanoma it was 0.188 µM; with SK-OV-3 ovarian, over 38.8 µM; in the assay on SF-539 CNS, 0.749 µM. In addition, the TGI in the assay with UO-31 renal is 15.2 µM; in the assay on ACHN renal it was 3.44 µM; with HOP-92 NSCLC, over 100 µM; in the assay with HCT-15 colon, 28.3 µM; in the assay on COLO 205 colon it was over 100 µM; in the assay with SK-MEL-5 melanoma, 1.13 µM.

Take `O=C(O)CO[C@@]12C#C/C=C\C#C[C@@H]3N(C(=O)Oc4ccccc4)c4ccccc4[C@]14O[C@@]34CCC2`: the TGI was over 100 µM in the assay with SNB-19 CNS; 54.8 µM with U251 CNS; over 100 µM with UACC-257 melanoma; 19.9 µM in the assay with SK-OV-3 ovarian; over 100 µM in the assay with SF-539 CNS; 90 µM in the assay with UO-31 renal. Also, the concentration for total growth inhibition (TGI) in the assay with ACHN renal is over 100 µM; with HOP-92 NSCLC it was over 100 µM; in the assay on HCT-15 colon it was 31.2 µM; in the assay on COLO 205 colon, 46.8 µM; in the assay with HOP-62 NSCLC, over 100 µM; in the assay on SK-MEL-5 melanoma, over 100 µM.

For the molecule `Nn1c(C23CC4CC(CC(C4)C2)C3)n[nH]c1=S`, the TGI in the assay with SNB-19 CNS, in the assay on MALME-3M melanoma, in the assay on U251 CNS, in the assay with SK-OV-3 ovarian, with SF-539 CNS and with UO-31 renal was over 100 µM in each case. In addition, the TGI in the assay on ACHN renal, with HOP-92 NSCLC, with HCT-15 colon, in the assay with COLO 205 colon, with HOP-62 NSCLC and with SK-MEL-5 melanoma was over 100 µM throughout.

On to `N#Cc1c(-c2ccc(Cl)cc2)c2c(n(C3OC(CO)C(O)C(O)C3O)c1=S)CCCC2` (stereo unspecified), for which the TGI in the assay on SNB-19 CNS, in the assay on MALME-3M melanoma, with U251 CNS, in the assay on UACC-257 melanoma, in the assay on SF-539 CNS and in the assay on UO-31 renal was over 100 µM in each case. The TGI with ACHN renal was over 100 µM; in the assay on HOP-92 NSCLC, over 100 µM; in the assay with HCT-15 colon, over 100 µM; with COLO 205 colon it was over 100 µM; in the assay on HOP-62 NSCLC, over 100 µM; in the assay on SK-MEL-5 melanoma, 80.3 µM.
